Series [1] is described as follows: Plasma pharmacokinetics of free drug after oral capecitabine in breast cancer patients. The series is classed as in vivo, human. As to conditions: for Cmax / Tmax / half-life / AUC(0-t) / concentration at 1 day: human, plasma; for AUC(0-t): read-out: AUC0−5 h; for concentration at 1 day: one patient, day 1, slow absorption kinetics, read-out: plasma concentrations; for plasma concentrations: same patient, end of the first cycle (days 12–14). The procedure: In parallel, a plastic cannula was inserted into an antecubital vein to monitor blood concentrations of the study drug at 30-min intervals. A total of 10 capecitabine-naive patients were studied after the first morning dose of day 1. Three of them were monitored once again between days 12 and 14 of cycle 1.
(§1) After thawing, 100 μl plasma were centrifuged through Centrisart-C4 filter units with a nominal molecular weight cutoff=10 000 (Sartorius, Germany) for 30 min at 37°C to separate free drug from protein-bound drug. […] Capecitabine, DFCR, DFUR (supplied by Roche, Basel, Switzerland), and FU (Sigma, St Louis, MO, USA) were evaluated in 200 mM tetraborate buffer (pH=9.5) monitoring the absorbance at three different wavelengths (capecitabine: 297 nm, DFCR: 282 nm, DFUR and FU: 268 nm). […] The intra-assay coefficient of variation for this method ranged from 3.4 to 6.9% with an interassay coefficient of variation ranging from 6.7 to 10.4%.

The nature of series [2]: Microdialysis pharmacokinetics in the interstitium of subcutaneous connective tissue. As to conditions: human; for AUC(0-t) / Cmax / Tmax / half-life: po, 1250 mg. From the text: (§2) Patients were in a supine position throughout the study period. Commercially available microdialysis probes (CMA 10®, CMA, Stockholm, Sweden) were inserted into a suitable cutaneous metastasis. A second microdialysis probe was inserted horizontally into the subcutaneous connective tissue of one thigh. The surface of the disinfected skin was punctured according to a previously described procedure ([Müller et al, 1995]). The position of the probes in the metastasis was established by ultrasound scanning. Subsequently, the microdialysis system was connected and perfused with Ringer's solution at a flow rate of 1.5 μl min^−1 by a microinfusion-pump (Precidor®; Infors-AG, Basel, Switzerland). After a 30 min baseline sampling period, probe calibration for capecitabine and FU was performed for a period of 30 min according to a retrodialysis procedure ([Stahle et al, 1991]). After a wash-out period of 30 min, the study drug was administered in the scheduled dose. Sampling was continued at 30-min intervals up to 300 min.
(§3) Sample collection and analysis of microdialysates and blood samples by capillary electrophoresis were performed according to a validated method with minor modifications ([Mader et al, 1998]). After thawing, 100 μl plasma were centrifuged through Centrisart-C4 filter units with a nominal molecular weight cutoff=10 000 (Sartorius, Germany) for 30 min at 37°C to separate free drug from protein-bound drug. […] Capecitabine, DFCR, DFUR (supplied by Roche, Basel, Switzerland), and FU (Sigma, St Louis, MO, USA) were evaluated in 200 mM tetraborate buffer (pH=9.5) monitoring the absorbance at three different wavelengths (capecitabine: 297 nm, DFCR: 282 nm, DFUR and FU: 268 nm).
(§4) To obtain absolute interstitial concentrations from dialysate concentrations, microdialysis probes were calibrated for in vivo recovery rates according to the retrodialysis method ([Müller et al, 1995],[1997]). The principle of this method relies on the assumption that the diffusion process is quantitatively equal in both directions across the semipermeable membrane. Therefore, the study drug is added to the perfusate and the disappearance rate through the membrane is taken as the in vivo recovery. The in vivo recovery value is calculated as: […]
(§5) Absolute interstitial fluid concentrations of free drug were calculated from dialysate concentrations by the following equation: […]
(§6) The following pharmacokinetic parameters were determined: AUC calculated using the trapezoidal rule, maximum concentration (cmax), time to maximum concentration (tmax), and elimination half-life (t1/2). For statistical calculations, pharmacokinetic parameters derived from different compartments were compared using the paired Wilcoxon test.

Series [3] in a line: In vitro plasma protein binding (ultrafiltration). It counts as in vitro ADME. As for the experimental part: as §1
The plasma protein binding of DFCR, DFUR, and FU was <4% up to 100 μg substance (ml plasma)^−1. In contrast, the plasma protein binding of capecitabine was determined to be 60% by in vitro binding experiments (data not shown).

Series [4] is described as follows: Microdialysis pharmacokinetics in the interstitium of a cutaneous metastasis (tumour).
Source text: as §2, §3, §4, §5, §6

Details of series [5]: method as in Mackean et al, 1998. To be noted: most slowly eliminating compound; ref Mackean et al, 1998; cited from earlier work.
The conditions of series [6]: after capecitabine, cited from earlier work.
The mark [7] stands for this setting: po, free drug, median, n=10, 1250 mg capecitabine m^−2 orally, day 1, read-out: cmax.
Setting [8] is: po, median, n=10, 1250 mg capecitabine m^−2 orally.
Setting [9] is: po, median, n=10, 1250 mg capecitabine m^−2 orally, read-out: tmax.
[10] abbreviates: oral, 1250 mg m^−2, Ratio of AUC0−5 h s.c. Tissue/plasma, median of single-patient ratios, n=10.
Where [11] appears, read: median of single-patient ratios, n=10.
The mark [12] stands for this setting: up to 100 μg substance (ml plasma)^−1.
Setting [13] is: tissue biopsies, colorectal tumours, ref Schüller et al, 2000.

In general, Cmax refers to the highest concentration seen after dosing. As usually defined, the Tmax is the time at which the peak concentration occurs. As usually defined, the half-life is the time needed for the level to fall by half in the phase considered. Read a low half-life as rapid decline. In general, fraction unbound refers to the share of the substance not bound to proteins or other matrix. High values mean much free substance, low ones little free substance.

Consider `CCCCCOC(=O)Nc1nc(=O)n([C@@H]2O[C@H](C)[C@@H](O)[C@H]2O)cc1F` [Capecitabine], for which the highest concentration (Cmax) in series [1] (oral, 1250 mg m^−2, capecitabine-naive patients, range between patients, read-out: range of cmax) was 640 to 15400 ng/mL; in series [1] (setting [7]), 2340 ng/mL; in series [2] it was 2700 ng/mL; in series [4] (human, po, 1250 mg), 2660 ng/mL. Moreover, the time to peak (Tmax) in series [1] (oral, 1250 mg m^−2, capecitabine-naive patients, range between patients, read-out: range of tmax) was 1 to 3 h; in series [1] (setting [9]), 1.75 h; in series [2] it was 2.25 h; in series [4] (human, po, 1250 mg), 2.5 h. Also, the half-life was 0.5 h in series [1] (setting [8]); 0.59 h in series [2]; 0.5 h in series [4] (human, po, 1250 mg). The results for the AUC(0-t) in series [1] (setting [8]) and in series [2] were 2360 ng·h/mL and 3160 ng·h/mL, respectively. In addition, the Kp in series [2] (setting [10]) was 1.31; in series [2] (oral, 1250 mg m^−2, ratio AUCconnective tissue/AUCplasma, subgroup of four patients) it was above 2; in series [4] (human, oral, 1250 mg m^−2), 1.76. The same compound showed a free fraction (fraction unbound) in series [3] (plasma, in vitro binding experiments (data not shown)) of 0.4. In addition, the “Ratio of AUC0−5 h Tumour/s.c. tissue” value in series [4] (setting [11]) stood at 1.11.

As for `C[C@H]1O[C@@H](n2cc(F)c(N)nc2=O)[C@H](O)[C@@H]1O` [DFCR, 5′-deoxy-5-fluorocytidine], the concentration at 1 day in series [1] (oral, 1250 mg m^−2) was at most 4000 ng/mL. Moreover, the maximum concentration (Cmax) was 6530 ng/mL in series [1] (setting [7]); 4370 ng/mL in series [2]; 4220 ng/mL in series [4] (human, po, 1250 mg). Besides, the half-life in series [1] (setting [8]) is 0.86 h; in series [2], 0.76 h; in series [4] (human, po, 1250 mg) it was 0.87 h. Moreover, the AUC(0-t) in series [1] (setting [8]) worked out at 11300 ng·h/mL; in series [2], 8400 ng·h/mL. Moreover, the time of peak concentration (Tmax) in series [1] (setting [9]) came out at 1.75 h; in series [2] it was 2.5 h; in series [4] (human, po, 1250 mg), 2.5 h. For the same compound, the plasma concentrations entry in series [1] was “about 10 μg ml^−1”. Besides, the Kp was determined as 0.67 in series [2] (setting [10]) and 0.67 in series [4] (human, oral, 1250 mg m^−2). The same compound displayed a fraction unbound in series [3] (setting [12]) above 0.96. Besides, the plasma half-life in series [5] is on record as 1.22 h. In series [4] (setting [11]), the “Ratio of AUC0−5 h Tumour/s.c. tissue” value is 1.12.

Turning to `C[C@H]1O[C@@H](n2cc(F)c(=O)[nH]c2=O)[C@H](O)[C@@H]1O` [DFUR, 5′-deoxy-5-fluorouridine], in series [1] (oral, 1250 mg m^−2), the concentration at 1 day is at most 4000 ng/mL. The Cmax in series [1] (setting [7]) is 3650 ng/mL. In addition, in series [1] (setting [8]), the half-life was 0.8 h and the AUC(0-t) was determined as 6420 ng·h/mL. Besides, the Tmax in series [1] (setting [9]) was found to be 2 h. Moreover, the plasma concentrations entry in series [1] was “about 10 μg ml^−1”. Moreover, the Kp in series [2] (in vivo, Ratio of AUC0−5 h s.c. Tissue/plasma) was 0.44. In series [2] (in vivo), this compound had an AUC(0-t) of 2750 ng·h/mL. This compound also gave an unbound share (fraction unbound) in series [3] (setting [12]) above 0.96. In series [4] (human, in vivo), the Kp came out at 0.53 and the “Ratio of AUC0−5 h Tumour/s.c. tissue” value stood at 1.20. The “AUC0−5 h” value in series [4] (human, in vivo, po, 1250 mg) was 3.35 μg ml^ 1 h.

As for `O=c1[nH]cc(F)c(=O)[nH]1` [FU, 5-fluorouracil, reference compound], the Cmax in series [1] (setting [7]) was 250 ng/mL; in series [2] it was 330 ng/mL; in series [4] (human, po, 1250 mg) it was 260 ng/mL. In addition, the AUC(0-t) in series [1] (setting [8]) is 290 ng·h/mL; in series [2] it was 360 ng·h/mL. For the same compound, the Tmax amounted to 2.5 h in series [1] (setting [9]); 2 h in series [2]; 3 h in series [4] (human, po, 1250 mg). Also, in series [1] (rarely exceeding, oral capecitabine regimen), the “FU levels in plasma” value is at most 0.5 µg/mL. For the same compound, the Kp in series [2] (setting [10]) turned out to be 1.53; in series [4] (human, oral, 1250 mg m^−2), 0.66. The mean tumour/plasma ratio in series [6] (patients with colorectal tumours, ref Schüller et al (2000)) was 21. For the same compound, the “median ratio tumour/healthy tissue of FU concentration” value in series [6] (setting [13]) is given as 2.9. Moreover, the “median tumour/plasma ratio of FU concentration” value in series [6] (setting [13]) is recorded as 16.6. The compound further yielded a free fraction (fraction unbound) in series [3] (setting [12]) above 0.96. Besides, the “Ratio of AUC0−5 h Tumour/s.c. tissue” value in series [4] (setting [11]) is listed as 0.66. In addition, the “detection in tumour interstitium” value in series [4] (one patient, day 1) is reported as “not observed”.
